Patent US5521315A, “Olefin substituted long chain compounds” (priority 1993, dated 1996)
Values joined by “and” are separate entries in the source; they are usually repeats but may differ in a detail not shown here. Equal values may be shown once. Read-outs that look alike come from different tables or passages of the source.

Columns and labels:
Type in all cases: cell-based
[1] = tested on: CMV promoter activity in transformed (adenovirus) cells; experiment: CMV promoter assay (gene transcription and translation; cytotoxicity in transformed cells); settings: for cytotoxicity ranking in CMV promoter assay: Table 2 / FIG. 18
Text: FIG. 18 illustrates data regarding proliferative activity of various inventive compounds for inducting CMV promoter activity. The CMV promoter assay measures gene transcription and translation activity wherein any active compounds will have cytotoxic activity to inhibit cellular protein synthesis machinery in transformed (adenovirus) cells.
This example illustrates data regarding proliferative activity of various inventive compounds for inducting CMV promoter activity. The CMV promoter assay measures gene transcription and translation activity wherein any active compounds will have cytotoxic activity to inhibit cellular protein synthesis machinery in transformed (adenovirus) cells.

mast cell degranulation = experiment: Serotonin release assay (inhibition of mast cell degranulation); design: INCORP / TOTAL: unit not given here; settings: for AVERAGE % RELEASE: average of duplicates; for RELEASE-SPONT: average corrected for spontaneous release
Text: A serotonin release assay is utilized to study the utility of the inventive compounds for treatment of asthma and allergy. […] This assay measures mast cell degranulation, which is an early phase reaction to allergen challenge. Mast cells grown in tissue culture are first loaded with ^3 H serotonin, which is incorporated into the granules in the cells. The mast cells are sensitized with antigen specific monoclonal IgE, and then triggered to degranulate with the specific antigen (dinitorphenolbound to BSA (DNP)). When the cells degranulate, ^3 H Serotonin is released into the medium, and can be measured directly. The ability of the inventive compounds to inhibit the degranulation response is determined by the decrease in ^3 H Serotonin released in the presence of drug and is represented as % INHIBITION.
Specifically, the serotonin release assay seeds 2×10^5 cells in 0.5 ml medium in duplicate for spontaneous release, IgE+DNP, IgE+DNP+EtOH (vehicle control), and inventive compounds. […] The cells are incubated for 18 hours at 37° C. in 5% CO2, washed twice with 0.5 ml Isotonic Buffer (25 mM disodium PIPES pH 7.1,100 mM NaCl, 5 mM KCl, 5 mM glucose, 0.4 mM MgCl2, 1mM CaCl2, 0.1% BSA), and sterile filtered. 250 μl Isotonic Buffer is added per well and the plates are equilibrated in an incubator for about 10 min. Drug is added and cells are activated with 40 ng/ml DNP-BSA (1 mg/ml Diluted 1:200 in Isotonic Buffer) for 45 minutes using 2 μl/250 μl. Spontaneous release is determined in incubated cells with 250 μl Isotonic Buffer for 45 minutes and the reaction is stopped by removing supernatant and centrifuging at ~4000 rpm in microfuge for 15 seconds to remove any detached cells. Released radiolableled serotonin is counted. To determine amount of ^3 H-serotonin incorporated into the cells, (a) remove Isotonic Buffer and lyse cells by adding 250 μl 1% Triton-X100 in PBS, (b) add to 5 ml scintillation fluid, (c) wash 2× with Triton/PBS, and (d) add washes to scintillation tube. Percent serotonin release is calculated by dividing the amount of released serotonin by the sum of incorporated plus released serotonin and correcting for spontaneous released serotonin. Compound inhibition is calculated by dividing the percent serotonin release in the presence of a compound by the percent serotonin release in the absence of the compound.
This assay is described above and provides an in vitro model for an allergy and asthma therapeutic product.

murine thymocyte = experiment: Murine thymocyte stimulated by ConA and IL-2 (T cell immune suppression); settings: FIGS. 8 and 9
Experimental: A thymocyte costimulator assay is conducted to evaluate the inventive compounds to inhibit activation and proliferation of thymocytes caused by stimulation with Con A and interleukin-1 (IL-1), or […]. Thymuses are obtained from mice (e.g., female Balb/C mice) and the thymuses are removed and dissociated into culture media (e.g., RPMI 1640 without serum supplementation). The dissociated thymus tissue and cell suspension is transferred to centrifuge tubes and allowed to settle, washed with HBSS and resuspended in serum-supplemented culture media (e.g., RPMI 1640 with 10% fetal calf serum). Any contaminating red cells are lysed, and viable cells are resuspended and counted. Thymocytes are plated (e.g., 96-well plates at a density of 2×10^5 cells/well) and a stimulating agent, such as Con A, IL-1 (e.g., IL-1α) or IL-2 is added to the well. The cells are incubated for 4 days at 37° C. On the fourth day, the cells are pulsed with tritiated thymidine and cell proliferation determined. Inventive compounds are added at the time of stimulating agent addition.
A third assay measures an ability of an inventive compound to inhibit IL-2-induced proliferation of murine thymocytes. Thymus glands are obtained from 4-6 week old mice and plated as a single cell suspension into flat bottomed wells in RPMI 1640 medium supplemented with 10% fetal calf serum. The inventive compounds are added to appropriate wells and the cells are incubated for 1-2 hrs. Concanavilin A (ConA, 0.25 mg/ml) and […] (20 ng/ml) are added and the plates are incubated for 4 days. Cell proliferation is determined as above.
FIG. 8 compares T cell immune suppression data of thirteen inventive compounds by comparing their IC50 values in a murine thymocyte stimulated by ConA and IL-2 in vitro model.

[2] = 50 μM, Table 4, duplicate wells

SMILES: C=CCCCCn1c(=O)c2c(ncn2COC(=O)C(C)(C)C)n(C)c1=O [CT1441, 1-(5-hexenyl)-3-methyl-7-methylpivaloylxanthine]
- IC50 ([1]; Table 2, read-out: IC50): 300 µM
- activity in serotonin release assay (mast cell degranulation; 50 μM): appear to be quite potent
- % INHIBITION (mast cell degranulation; 50 μM, Table 4): 107.89%
- AVERAGE % RELEASE (mast cell degranulation; 50 μM, Table 4): 15.92%
- % RELEASE (mast cell degranulation; [2]): 15.85% and 16.00%
- INCORP (mast cell degranulation; [2]): 22567 and 24238
- RELEASE (mast cell degranulation; [2]): 2125 and 2308
- RELEASE X2 (mast cell degranulation; [2]): 4250 and 4616
- TOTAL (mast cell degranulation; [2]): 26817 and 28854
- % INHIBITION (mast cell degranulation; 50 μM, Table 5): 107.89%
- T cell immune suppressing activity (murine thymocyte): potent immune suppressing activity

SMILES: C=CCCCCCCCn1c(=O)c2c(ncn2C)n(C)c1=O [CT1550, 1-(8-nonenyl)-3,7-dimethylxanthine]
- IC50 [1]: 75 µM
- RELEASE-SPONT (mast cell degranulation; 50 μM, Table 4): 6.94%
- AVERAGE % RELEASE (mast cell degranulation; 50 μM, Table 4): 23.50%
- inhibition at 50 µM (mast cell degranulation; Mast cell, 50 μM, Table 4): 13.4%

SMILES: C=CCCCn1c(=O)c2c(ncn2C)n(C)c1=O [CT1575, 1-(4-pentenyl)-3,7-dimethylxanthine]
- IC50 [1]: > 500 µM
- activity in serotonin release assay (mast cell degranulation; 50 μM): the two most potent compounds in this group
- RELEASE-SPONT (mast cell degranulation; 50 μM, Table 4): 4.33%
- AVERAGE % RELEASE (mast cell degranulation; 50 μM, Table 4): 20.89%
- inhibition at 50 µM (mast cell degranulation; Mast cell, 50 μM, Table 4): 46%

SMILES: C/C=C/CCCn1c(=O)c2c(ncn2C)n(C)c1=O [CT1581, 1-(trans-4-Hexenyl)-3,7-dimethylxanthine]
- IC50 [1]: > 500 µM
- RELEASE-SPONT (mast cell degranulation; 50 μM, Table 4): 4.31%
- AVERAGE % RELEASE (mast cell degranulation; 50 μM, Table 4): 20.87%
- inhibition at 50 µM (mast cell degranulation; Mast cell, 50 μM, Table 4): 46.3%

SMILES: CC(C)=CCC[C@@H](C)CCn1c(=O)c2c(ncn2C)n(C)c1=O [CT1596R, 1-(3-(R)-methyl-7-methyloct-6-enyl)-3,7-dimethylxanthine]
- IC50 [1]: > 500 µM
- RELEASE-SPONT (mast cell degranulation; 50 μM, Table 4): 6.59%
- AVERAGE % RELEASE (mast cell degranulation; 50 μM, Table 4): 23.14%
- inhibition at 50 µM (mast cell degranulation; Mast cell, 50 μM, Table 4): 17.9%

SMILES: CC(C)=CCC[C@H](C)CCn1c(=O)c2c(ncn2C)n(C)c1=O [CT1596S, 1-(3-(S)-methyl-7-methyloct-6-enyl)-3,7-dimethylxanthine]
- IC50 [1]: 40 µM
- cytotoxicity ranking in CMV promoter assay [1]: the most cytotoxic compound tested
- RELEASE-SPONT (mast cell degranulation; 50 μM, Table 4): 3.15%
- AVERAGE % RELEASE (mast cell degranulation; 50 μM, Table 4): 19.71%
- inhibition at 50 µM (mast cell degranulation; Mast cell, 50 μM, Table 4): 60.7%

SMILES: C=CCCCCCCCN1C(=O)CCCC1=O [CT1604, N-(8-nonenyl)glutarimide]
- IC50 [1]: 100 µM
- RELEASE-SPONT (mast cell degranulation; 25 uM, Table 4): 4.85%
- AVERAGE % RELEASE (mast cell degranulation; 25 uM, Table 4): 21.41%
- activity in serotonin release assay (mast cell degranulation; 50 μM): appear to be quite potent
- RELEASE-SPONT (mast cell degranulation; 50 μM, Table 4): 0.41%
- AVERAGE % RELEASE (mast cell degranulation; 50 μM, Table 4): 16.96%
- inhibition at 25 µM (mast cell degranulation; Mast cell, 25 uM, Table 4): 39.5%
- inhibition at 50 µM (mast cell degranulation; Mast cell, 50 μM, Table 4): 94.9%

SMILES: C=CCCCCN1C(=O)CCN(C)C1=O [CT1812, 3-(5-hexenyl)-1-methyldihydrouracil]
- IC50 [1]: > 100 µM
- activity in serotonin release assay (mast cell degranulation; 50 μM): just not having much of an effect at 50 μM
- % INHIBITION (serotonin release) (mast cell degranulation; 50 μM, Table 3): no inhibi-
- RELEASE-SPONT (mast cell degranulation; 50 μM, Table 4): 8.27%
- AVERAGE % RELEASE (mast cell degranulation; 50 μM, Table 4): 24.83%
- inhibition at 50 µM (mast cell degranulation; Mast cell, 50 μM, Table 4): -3.14%

SMILES: CC/C=C\CCCCCn1c(=O)ccn(C)c1=O [CT1814, 3-(6-cis-nonenyl)1-methyluracil]
- IC50 [1]: 100 µM
- activity in serotonin release assay (mast cell degranulation; 50 μM): appears to decrease the activity
- RELEASE-SPONT (mast cell degranulation; 50 μM, Table 4): 5.94%
- AVERAGE % RELEASE (mast cell degranulation; 50 μM, Table 4): 22.50%
- inhibition at 50 µM (mast cell degranulation; Mast cell, 50 μM, Table 4): 25.9%

SMILES: C=CCCCCCCCn1c(=O)ccn(C)c1=O [CT1817, 3-(8-nonenyl)1-methyluracil]
- IC50 [1]: 250 µM
- RELEASE-SPONT (mast cell degranulation; 50 μM, Table 4): 3.57%
- AVERAGE % RELEASE (mast cell degranulation; 50 μM, Table 4): 20.12%
- inhibition at 50 µM (mast cell degranulation; Mast cell, 50 μM, Table 4): 55.5%

SMILES: C=CCCCCn1c(=O)c(C)cn(C)c1=O [CT1905, 3-(5-hexenyl)-1-methylthymine]
- IC50 [1]: > 500 µM
- RELEASE-SPONT (mast cell degranulation; 50 μM, Table 4): 4.94%
- AVERAGE % RELEASE (mast cell degranulation; 50 μM, Table 4): 21.49%
- inhibition at 50 µM (mast cell degranulation; Mast cell, 50 μM, Table 4): 38.5%

SMILES: CC/C=C\CCCCCn1c(=O)c(C)cn(C)c1=O [CT1916, 3-(6-cis-nonenyl)-1-methylthymine]
- IC50 [1]: 250 µM
- activity in serotonin release assay (mast cell degranulation; 50 μM): appears to decrease the activity
- RELEASE-SPONT (mast cell degranulation; 50 μM, Table 4): 6.02%
- AVERAGE % RELEASE (mast cell degranulation; 50 μM, Table 4): 22.58%
- inhibition at 50 µM (mast cell degranulation; Mast cell, 50 μM, Table 4): 24.9%

SMILES: C=CCCCCCCCn1c(=O)c(C)cn(C)c1=O [CT1917, 3-(8-nonenyl)-1-methylthymine]
- IC50 [1]: 75 µM
- RELEASE-SPONT (mast cell degranulation; 50 μM, Table 4): 3.75%
- AVERAGE % RELEASE (mast cell degranulation; 50 μM, Table 4): 20.31%
- inhibition at 50 µM (mast cell degranulation; Mast cell, 50 μM, Table 4): 53.2%

SMILES: C=CCCn1c(=O)c2c(ncn2C)n(C)c1=O [CT2503, 1-(3-butenyl)-3,7-dimethylxanthine]
- IC50 [1]: > 500 µM
- RELEASE-SPONT (mast cell degranulation; 50 μM, Table 4): 4.87%
- AVERAGE % RELEASE (mast cell degranulation; 50 μM, Table 4): 21.43%
- inhibition at 50 µM (mast cell degranulation; Mast cell, 50 μM, Table 4): 39.2%

SMILES: C=CC(O)CCCCCn1c(=O)c2c(ncn2C)n(C)c1=O (stereo not drawn) [CT2508, 1-(6-hydroxy-7-octenyl)-3,7-dimethylxanthine]
- IC50 [1]: > 500 µM
- RELEASE-SPONT (mast cell degranulation; 50 μM, Table 4): 2.89%
- AVERAGE % RELEASE (mast cell degranulation; 50 μM, Table 4): 19.44%
- inhibition at 50 µM (mast cell degranulation; Mast cell, 50 μM, Table 4): 64%

SMILES: CCCCCCCCC=CCCCCCCCCn1c(=O)c2c(ncn2C)n(C)c1=O [CT2539, 1-(9-octadecenyl)-3,7-dimethylxanthine]
- IC50 [1]: > 100 µM
- RELEASE-SPONT (mast cell degranulation; 50 μM, Table 4): 3.13%
- AVERAGE % RELEASE (mast cell degranulation; 50 μM, Table 4): 19.69%
- inhibition at 50 µM (mast cell degranulation; Mast cell, 50 μM, Table 4): 61%

SMILES: CC(C)=CCCC(C)=CCCC(C)=CCn1c(=O)c2c(ncn2C)n(C)c1=O [CT2544, 1-(Farnesyl)-3,7-dimethylxanthine]
- IC50 [1]: 20 µM
- cytotoxicity ranking in CMV promoter assay [1]: the most cytotoxic compound tested
- RELEASE-SPONT (mast cell degranulation; 50 μM, Table 4): -1.11%
- AVERAGE % RELEASE (mast cell degranulation; 50 μM, Table 4): 15.44%
- inhibition at 50 µM (mast cell degranulation; Mast cell, 50 μM, Table 4): 114%

SMILES: CC(C)=CCC/C(C)=C/Cn1c(=O)c2c(ncn2C)n(C)c1=O [CT2545, 1-(Geranyl)-3,7-dimethylxanthine]
- IC50 [1]: 75 µM
- RELEASE-SPONT (mast cell degranulation; 50 μM, Table 4): 2.49%
- AVERAGE % RELEASE (mast cell degranulation; 50 μM, Table 4): 19.05%
- inhibition at 50 µM (mast cell degranulation; Mast cell, 50 μM, Table 4): 68.9%
